This is an account of results in paper PMC10383801 (Pharmaceutics, 2023).

The conditions of series [1]: stated without reference; cited from earlier work. From the text:
HIP of peptides with surfactants is an efficient tool to enhance its lipophilic characteristics. […] These six positively charged amino acids (two Histidine, one Arginine, one Lysine and two N-terminal amino aci ...

Another series can be described thus: Solubility in n-octanol. Type of series: physicochemical. The note with it: insulin measured spectrophotometrically at 270 nm, sentence also cites refs 14, 15. As for the experimental part:
After 4 h of magnetic stirring, the mixture was centrifuged for 30 min at 5000 rpm.

In the next series the test system is diabetic rats. Briefly: Antidiabetic effect study in diabetic rats. Format: in vivo. The note with it: streptozotocin-induced diabetic rats; for reduction in blood glucose level (in words): 5 rats per group, glucometer, 0-8 h. The procedure:
Glucose lowering effect of orally administered optimized SMEDDS was monitored in diabetic rats. Study was performed with the approval Pharmacy Ethical Committee, Bahauddin Zakariya University, Multan, Pakistan (249/PEC/2023 dated 25 March 2023). Diabetes was introduced in rats weighing 220–240 g by injecting streptozotocin solution at the dose of (45 mg/kg body weight) intraperitoneally. Fasting blood glucose (FBG) level of all the rats was measured after 3 days using glucometer (AccuChek Performa, Hoffman-La Roche, Basel, Switzerland). Rats with FBG level 200–250 mg/dL were considered diabetic and were included in the study. All rats were fasted over night before experiment and start of treatment. Diabetic rats were divided randomly in 5 groups with 5 rats per group. […] Blood samples were collected at regular time intervals, i.e., 0, 0.5, 1, 1.5, 2, 3, 4, 6, and 8 h and measured for hypoglycemic effects using glucometer.

For Human insulin, the isoelectric point in series [1] is given as 5.35–5.45. Also, the solubility in n-octanol in the series “Solubility in n-octanol” was approximately 17 µg/mL. The “reduction in blood glucose level (in words)” value is given as “negligible anti-diabetic effect” with diabetic rats (oral, 50 IU/kg insulin equivalent) and “Maximum reduction in blood glucose level” in the series on diabetic rats (subcutaneous, 5 IU/kg). In addition, the “duration of glucose lowering effect” value with diabetic rats (subcutaneous, 5 IU/kg, entire duration of the experiment) is reported as “up to 8 h”.
